Results published in ChEMBL document CHEMBL5029183 (J Med Chem, 2021).
Activity calls are given as the source filed them.

Experiments:
[1] = Toxicity in Kunming mouse model assessed as conditioned place preference time at 10 micromol/kg, sc; conditions: in vivo, dose 10 µmol/kg
Mus musculus [2] = assay: Antinociceptive activity in Kunming mouse model assessed as increase in paw withdrawal latency at 0.67 to 20 nmol, icv measured after 20 mins by radiant heat paw withdrawal assay; type: functional, organism-based; conditions: dose 0.67-20 nmol
Mus musculus [3] = assay: Antinociceptive activity in Kunming mouse model assessed as increase in paw withdrawal latency at 20 nmol, icv pretreated for 10 mins with naloxone followed by compound addition and measured upto 10 mins by radiant heat paw withdrawal assay; type: functional, organism-based; conditions: time min <=10
Mus musculus [4] = assay: Antinociceptive activity in Kunming mouse model assessed as increase in paw withdrawal latency at 0.67 to 20 nmol, icv by radiant heat paw withdrawal assay; type: functional, organism-based; conditions: dose 0.67-20 nmol, TDE = time-dependent effect
[5] = Toxicity in icv dosed Kunming mouse assessed as inhibition of gastrointestinal transit by measuring charcoal distance travel by charcoal meal test; type: organism-based; conditions: in vivo, icv_or_intrathecal, dose 0.67-6.7 nmol
Mus musculus [6] = assay: Antinociceptive activity in Kunming mouse model assessed as increase in paw withdrawal latency at 20 nmol, icv pretreated for 20 mins with naloxonazine followed by compound addition and measured upto 10 mins by radiant heat paw withdrawal assay; type: functional, organism-based; conditions: time min <=10
Mus musculus [7] = assay: Antinociceptive activity in icv dosed Kunming mouse model assessed as increase in paw withdrawal latency by radiant heat paw withdrawal assay; type: functional; conditions: dose 0.67-20 nmol
Ileum = assay: Inhibition of electric-field induced guinea pig ileum contraction; type: functional, tissue-based; conditions: Cavia porcellus
[8] = Toxicity in Kunming mouse assessed as inhibition of gastrointestinal transit at 10 micromol/kg, sc by charcoal meal test (reference value: 70.3 +/- 3 %); type: organism-based; design: scale not given: the % may be the effect or the level left; conditions: in vivo
[9] = Toxicity in Kunming mouse model assessed as conditioned place preference time at 20 nmol, icv; conditions: in vivo, icv_or_intrathecal
Mus musculus [10] = assay: Antinociceptive activity in Kunming mouse model assessed as increase in paw withdrawal latency at 20 nmol, icv pretreated for 4 hrs with beta-FNA followed by compound addition and measured upto 10 mins by radiant heat paw withdrawal assay; type: functional, organism-based; conditions: time min <=10
Mus musculus [11] = assay: Antinociceptive activity in Kunming mouse model assessed as increase in paw withdrawal latency at 20 nmol, icv pretreated for 30 mins with nor-BNI followed by compound addition and measured upto 10 mins by radiant heat paw withdrawal assay; type: functional, organism-based; conditions: time min <=10
Vas deferens = assay: Inhibition of electric-field induced mouse vas deferens contraction; type: functional, tissue-based
Mus musculus [12] = assay: Antinociceptive activity in Kunming mouse model assessed as increase in paw withdrawal latency at 0.67 to 20 nmol, icv measured after 5 mins by radiant heat paw withdrawal assay; type: functional, organism-based; conditions: dose 0.67-20 nmol
Mus musculus [13] = assay: Antinociceptive activity in Kunming mouse model assessed as increase in paw withdrawal latency at 10 micromol/kg, sc by radiant heat paw withdrawal assay; type: functional, organism-based; conditions: dose 10.0 µmol/kg
Mus musculus [14] = assay: Chronic antinociceptive tolerance in Kunming mouse pretreated with compound followed by repeated compound addition at 20 nmol, icv once daily for 7 days and measured after 5 mins by radiant heat paw withdrawal test; type: functional, organism-based; conditions: time 7.0 day
[15] = Metabolic stability in Kunming mouse serum assessed as half life measured upto 480 mins by RP-HPLC analysis; type: ADME, cell-free
Mu-type opioid receptor [16] = target: T1, Mu-type opioid receptor (Homo sapiens, UniProt P35372); assay: Agonist activity at mu-opioid receptor (unknown origin) expressed in HEK293 cells assessed as inhibition of forskolin-induced cAMP accumulation incubated for 15 mins by ELISA; type: functional, cell-based
Mu-type opioid receptor [17] = target: Mu-type opioid receptor (Rattus norvegicus, UniProt P33535); assay: Displacement of [3H]DAMGO from MOR in Wistar rat brain membranes measured after 1 hr by scintillation counting method; type: cell membranes, Membrane
[18] = target: Delta-type opioid receptor (Homo sapiens) (UniProt P41143); assay: Agonist activity at delta-opioid receptor (unknown origin) expressed in HEK293 cells assessed as inhibition of forskolin-induced cAMP accumulation incubated for 15 mins by ELISA; type: functional, cell-based
Mu-type opioid receptor [19] = target: T1, Mu-type opioid receptor; assay: Agonist activity at mu-opioid receptor (unknown origin) expressed in HEK293 cells assessed as inhibition of forskolin-induced cAMP accumulation incubated for 15 mins by ELISA relative to control; type: functional, cell-based; conditions: filed as agonist
[20] = target: Delta-type opioid receptor (Rattus norvegicus, UniProt P33533); assay: Displacement of [3H]DPDPE from DOR in Wistar rat brain membranes measured after 3 hrs by scintillation counting method; type: cell membranes, Membrane
[21] = target: Kappa-type opioid receptor (Homo sapiens) (UniProt P41145); assay: Agonist activity at kappa-opioid receptor (unknown origin) expressed in HEK293 cells assessed as inhibition of forskolin-induced cAMP accumulation incubated for 15 mins by ELISA; type: functional, cell-based
Rattus norvegicus [22] = species on record: Rattus norvegicus; assay: Selectivity index, ratio of Ki for displacement of [3H]DPDPE from DOR in Wistar rat brain membranes to Ki for displacement of [3H]DAMGO from MOR in Wistar rat brain membranes; type: cell membranes
Rattus norvegicus [23] = species on record: Rattus norvegicus; assay: Selectivity index, ratio of Ki for displacement of [3H]-U69593 from KOR in Wistar rat brain membranes to Ki for displacement of [3H]DAMGO from MOR in Wistar rat brain membranes; type: cell membranes
[24] = Metabolic stability in Kunming mouse brain assessed as half life measured upto 480 mins by RP-HPLC analysis; type: ADME, tissue-based
Mus musculus [25] = species on record: Mus musculus; assay: Antinociceptive tolerance in Kunming mouse pretreated with 3 times ED50 of compound for 2 hrs followed by challenge with second dose of compound by radiant heat paw withdrawal test; type: functional
Mus musculus [26] = species on record: Mus musculus; assay: Antinociceptive tolerance in Kunming mouse pretreated with saline for 2 hrs followed by compound addition by radiant heat paw withdrawal test; type: functional
Mus musculus [27] = assay: Antinociceptive activity in Kunming mouse model assessed as maximum possible effect at 10 micromol/kg, sc by radiant heat paw withdrawal assay; type: functional; conditions: dose 10 µmol/kg
Mus musculus [28] = assay: Antiallodynic activity in Kunming mouse model of spared nerve injury-induced neuropathic pain assessed as increase in paw withdrawal threshold at 10 micromol/kg, sc measured at 20 to 50 mins by von Frey test; type: functional, organism-based; conditions: dose 10.0 µmol/kg, time 20-50 min
[29] = Toxicity in Kunming mouse assessed as effect on motor coordination at 20 nmol, icv by rotarod test; conditions: in vivo, icv_or_intrathecal
Mus musculus [30] = assay: Chronic antinociceptive tolerance in Kunming mouse pretreated with compound followed by repeated compound addition at 20 nmol, icv once daily for 7 days and measured after 15 mins by radiant heat paw withdrawal test; type: functional, organism-based; conditions: time 7.0 day
Mus musculus [31] = assay: Chronic antinociceptive tolerance in Kunming mouse pretreated with compound followed by repeated compound addition at 10 micromol/kg, sc once daily for 7 days and measured after 20 mins by radiant heat paw withdrawal test; type: functional, organism-based; conditions: dose 10.0 µmol/kg, time 7.0 day
[32] = Toxicity in Kunming mouse assessed as effect on motor coordination at 10 micromol/kg, sc by rotarod test; type: organism-based; conditions: in vivo, dose 10 µmol/kg

Sequence of Kappa-type opioid receptor (Homo sapiens) (P41145 whole entry): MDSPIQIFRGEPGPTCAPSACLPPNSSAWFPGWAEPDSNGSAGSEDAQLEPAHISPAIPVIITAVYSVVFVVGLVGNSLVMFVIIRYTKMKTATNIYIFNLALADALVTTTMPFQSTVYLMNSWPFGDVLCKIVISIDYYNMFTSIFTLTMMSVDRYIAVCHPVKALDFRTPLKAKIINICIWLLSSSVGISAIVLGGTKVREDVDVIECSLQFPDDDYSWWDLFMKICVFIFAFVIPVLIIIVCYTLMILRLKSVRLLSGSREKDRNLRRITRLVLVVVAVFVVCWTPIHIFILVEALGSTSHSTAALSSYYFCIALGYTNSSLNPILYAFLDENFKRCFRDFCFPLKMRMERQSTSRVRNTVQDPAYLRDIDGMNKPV
T1 sequence (P35372 whole entry): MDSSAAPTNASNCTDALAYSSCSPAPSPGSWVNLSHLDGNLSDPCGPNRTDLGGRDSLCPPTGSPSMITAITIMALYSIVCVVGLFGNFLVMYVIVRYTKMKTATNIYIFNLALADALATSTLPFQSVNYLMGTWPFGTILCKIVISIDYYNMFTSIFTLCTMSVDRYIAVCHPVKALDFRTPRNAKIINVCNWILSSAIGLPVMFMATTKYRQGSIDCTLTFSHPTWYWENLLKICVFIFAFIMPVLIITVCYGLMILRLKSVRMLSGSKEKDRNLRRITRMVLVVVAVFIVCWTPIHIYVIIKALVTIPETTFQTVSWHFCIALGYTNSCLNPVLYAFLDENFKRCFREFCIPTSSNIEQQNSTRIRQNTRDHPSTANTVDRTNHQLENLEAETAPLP
Sequence of Delta-type opioid receptor (Homo sapiens) (P41143 whole entry): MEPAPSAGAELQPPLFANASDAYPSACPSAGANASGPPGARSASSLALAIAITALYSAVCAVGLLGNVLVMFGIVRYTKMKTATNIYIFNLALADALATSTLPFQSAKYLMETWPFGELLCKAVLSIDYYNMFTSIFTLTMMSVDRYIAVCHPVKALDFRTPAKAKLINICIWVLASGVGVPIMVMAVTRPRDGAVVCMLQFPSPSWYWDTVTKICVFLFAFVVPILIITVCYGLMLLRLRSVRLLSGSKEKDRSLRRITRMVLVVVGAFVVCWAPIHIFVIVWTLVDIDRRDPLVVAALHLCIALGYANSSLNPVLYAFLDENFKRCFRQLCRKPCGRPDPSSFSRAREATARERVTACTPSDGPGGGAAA
Sequence of Delta-type opioid receptor (P33533 whole entry): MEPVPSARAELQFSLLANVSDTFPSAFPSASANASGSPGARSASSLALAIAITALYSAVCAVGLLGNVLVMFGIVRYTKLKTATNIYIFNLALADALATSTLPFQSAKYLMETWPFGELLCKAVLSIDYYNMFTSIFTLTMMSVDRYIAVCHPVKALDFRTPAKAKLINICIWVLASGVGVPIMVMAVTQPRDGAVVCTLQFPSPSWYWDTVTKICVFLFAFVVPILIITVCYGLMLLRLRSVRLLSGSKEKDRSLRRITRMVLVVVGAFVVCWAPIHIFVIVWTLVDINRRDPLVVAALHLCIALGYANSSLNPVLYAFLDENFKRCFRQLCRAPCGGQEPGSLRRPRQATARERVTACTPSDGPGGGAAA
Sequence of Mu-type opioid receptor (Rattus norvegicus, UniProt P33535) (P33535 whole entry): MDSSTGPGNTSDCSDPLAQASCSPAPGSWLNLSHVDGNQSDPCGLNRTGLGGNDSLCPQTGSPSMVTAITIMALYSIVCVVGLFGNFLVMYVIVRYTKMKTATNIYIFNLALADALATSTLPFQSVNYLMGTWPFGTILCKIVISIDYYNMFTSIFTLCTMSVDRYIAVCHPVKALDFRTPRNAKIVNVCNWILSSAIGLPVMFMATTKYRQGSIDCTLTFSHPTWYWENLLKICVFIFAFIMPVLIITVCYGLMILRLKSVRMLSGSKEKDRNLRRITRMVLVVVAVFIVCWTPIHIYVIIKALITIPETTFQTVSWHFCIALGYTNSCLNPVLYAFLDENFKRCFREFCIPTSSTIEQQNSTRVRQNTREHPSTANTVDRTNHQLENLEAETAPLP

SMILES	Time [1] [s]	Activity [5]	IC50 (Ileum) [nM]	Time [9] [s]	IC50 (Vas deferens) [nM]	half-life [15] [min]	EC50 (Mu-type opioid receptor [16]) [nM]	Ki (Mu-type opioid receptor [17]) [nM]	Activity [18]	Emax (Mu-type opioid receptor [19]) [%]	Ki [20] [µM]	Activity [21]	Ratio Ki (Rattus norvegicus [22])	Ratio Ki (Rattus norvegicus [23])	half-life [24] [min]	also measured
NC(=O)[C@H](Cc1ccccc1)NC(=O)[C@H](Cc1c[nH]c2ccccc12)NC(=O)[C@@H]1CCCN1C(=O)[C@@H](N)Cc1ccc(O)cc1 [ENDOMORPHIN-1]	451	Dose-Dependent Effect	8.73	455	50.1	–	–	–	–	–	–	–	–	–	–	Activity (Mus musculus [2]): inactive; Activity (Mus musculus [3]): inactive; Activity (Mus musculus [4]): Tde; Activity (Mus musculus [6]): Active; Activity (Mus musculus [7]): Dose-Dependent Effect; Activity ([8]; at 10 µmol/kg): 68.1%; Activity (Mus musculus [10]): inactive; Activity (Mus musculus [11]): Active; Activity (Mus musculus [12]): inactive; Activity (Mus musculus [13]): inactive; Activity (Mus musculus [14]): Active
N=C(N)NCCC[C@@H](NC(=O)[C@@H](CCCNC(=N)N)NC(=O)CNC(=O)[C@@H]1CSSC[C@H](NC(=O)[C@@H](N)Cc2ccc(O)cc2)C(=O)N[C@@H](Cc2ccccc2)C(=O)N[C@@H](Cc2ccc(Cl)cc2)C(=O)N1)C(=O)O	–	–	102	–	139	268	202	67.2	inactive	79.6	> 10	inactive	> 149	> 149	351	–
N=C(N)NCCC[C@@H](NC(=O)[C@@H](CCCNC(=N)N)NC(=O)CNC(=O)[C@@H]1CSSC[C@H](NC(=O)[C@@H](N)Cc2ccc(O)cc2)C(=O)N[C@@H](Cc2ccccc2)C(=O)N[C@@H](Cc2ccccc2)C(=O)N1)C(=O)O	–	–	74.6	–	108	216	154	45.3	inactive	79.7	> 10	inactive	221	> 221	247	–
N=C(N)NCCC[C@@H](NC(=O)[C@@H](CCCNC(=N)N)NC(=O)CNC(=O)[C@@H]1CSSC[C@H](NC(=O)[C@@H](N)Cc2ccc(O)cc2)C(=O)N[C@@H](Cc2c[nH]c3ccccc23)C(=O)N[C@@H](Cc2ccccc2)C(=O)N1)C(=O)O	–	–	70.2	–	97.5	197	160	40.1	inactive	77.2	> 10	inactive	249	> 249	254	–
N=C(N)NCCC[C@@H](NC(=O)[C@@H](CCCNC(=N)N)NC(=O)CNC(=O)[C@@H]1CSSC[C@H](NC(=O)[C@@H](N)Cc2ccc(O)cc2)C(=O)N[C@@H](Cc2c[nH]c3ccccc23)C(=O)N[C@@H](Cc2ccc(Cl)cc2)C(=O)N1)C(=O)O	–	–	97.4	–	138	274	189	68.9	inactive	80.6	> 10	inactive	> 145	> 145	348	–
NC(=O)[C@H](Cc1ccccc1)NC(=O)[C@H](Cc1ccccc1)NC(=O)[C@@H]1CCCN1C(=O)[C@@H](N)Cc1ccc(O)cc1 [ENDOMORPHIN 2]	445	Dose-Dependent Effect	11.3	449	42.9	8.9	–	–	–	–	–	–	–	–	15.5	ED50 (Mus musculus [25]): 20.6 nmol; Activity (Mus musculus [2]): inactive; Activity (Mus musculus [3]): inactive; Activity (Mus musculus [4]): Tde; Activity (Mus musculus [6]): inactive; Activity (Mus musculus [7]): Dose-Dependent Effect; ED50 (Mus musculus [7]): 6.4 nmol; Activity ([8]; at 10 µmol/kg): 68.8%; Activity (Mus musculus [10]): inactive; Activity (Mus musculus [11]): inactive; Activity (Mus musculus [12]): inactive; Activity (Mus musculus [13]): inactive; Activity (Mus musculus [14]): Active; ED50 (Mus musculus [26]): 6.4 nmol
CN1CC[C@]23c4c5ccc(O)c4O[C@H]2[C@@H](O)C=C[C@H]3[C@H]1C5 [MORPHINE]	447	Dose-Dependent Effect	–	451	–	–	–	–	–	–	–	–	–	–	–	MPE (Mus musculus [27]): 41.05%; Activity (Mus musculus [28]): Active; Activity [29]: Toxic; Activity (Mus musculus [30]): Active; Activity ([8]; dose 10 µmol/kg): Toxic; Activity (Mus musculus [31]): Active; Activity [32]: Toxic
